Test results as given in paper PMC9574929, “Development of Hydrogen Sulfide-Releasing Carbonic Anhydrases IX- and XII-Selective Inhibitors with Enhanced Antihyperalgesic Action in a Rat Model of Arthritis” (Journal of Medicinal Chemistry, 2022).

Tests used:
hCA I = hCA I (Homo sapiens, UniProt P00915); assay: Stopped-flow CO2 hydrase assay, hCA I
Description: (§1) The uncatalyzed rates were determined in the same manner and subtracted from the total observed rates. Stock solutions of inhibitor (0.1 mM) were prepared in distilled-deionized water and dilutions up to 0.01 nM were done thereafter with the assay buffer. […] The inhibition constants were obtained by nonlinear least-squares methods using PRISM 3 and the Cheng–Prusoff equation, as reported earlier,[39] and represent the mean from at least three different determinations.

hCA II = hCA II (Homo sapiens, UniProt P00918); assay: Stopped-flow CO2 hydrase assay, hCA II; settings: for SI CA I/II: selectivity index, ratio of KIs
Description: as §1

hCA IV = hCA IV (Homo sapiens, UniProt P22748); assay: Stopped-flow CO2 hydrase assay, hCA IV; settings: for SI CA I/IV / SI CA II/IV: selectivity index, ratio of KIs
Description: as §1

hCA IX = hCA IX (Homo sapiens, UniProt Q16790); assay: Stopped-flow CO2 hydrase assay, hCA IX; settings: for SI CA I/IX / SI CA II/IX: selectivity index, ratio of KIs
Description: as §1

hCA XII = hCA XII (Homo sapiens, UniProt O43570); assay: Stopped-flow CO2 hydrase assay, hCA XII; settings: for SI CA I/XII / SI CA II/XII: selectivity index, ratio of KIs
Sequence of hCA XII (O43570 25-354): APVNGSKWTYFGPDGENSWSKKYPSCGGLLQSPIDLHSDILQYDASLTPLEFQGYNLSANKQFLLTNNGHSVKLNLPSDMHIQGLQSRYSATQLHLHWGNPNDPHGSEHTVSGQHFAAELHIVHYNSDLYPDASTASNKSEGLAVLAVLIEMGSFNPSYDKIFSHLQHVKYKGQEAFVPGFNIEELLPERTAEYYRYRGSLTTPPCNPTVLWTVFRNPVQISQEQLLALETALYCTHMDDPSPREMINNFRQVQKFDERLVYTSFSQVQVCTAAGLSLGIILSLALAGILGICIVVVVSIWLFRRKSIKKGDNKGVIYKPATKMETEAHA
Description: as §1

Sequence of hCA I (P00915 whole entry): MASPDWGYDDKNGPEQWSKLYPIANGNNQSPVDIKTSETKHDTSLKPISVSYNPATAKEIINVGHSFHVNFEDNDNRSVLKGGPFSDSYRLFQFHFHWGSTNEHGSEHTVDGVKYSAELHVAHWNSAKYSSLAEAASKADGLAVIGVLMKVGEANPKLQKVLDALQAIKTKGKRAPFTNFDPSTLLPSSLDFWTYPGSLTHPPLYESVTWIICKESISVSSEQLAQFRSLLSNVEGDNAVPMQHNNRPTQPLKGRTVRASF
Sequence of hCA IV (P22748 19-312): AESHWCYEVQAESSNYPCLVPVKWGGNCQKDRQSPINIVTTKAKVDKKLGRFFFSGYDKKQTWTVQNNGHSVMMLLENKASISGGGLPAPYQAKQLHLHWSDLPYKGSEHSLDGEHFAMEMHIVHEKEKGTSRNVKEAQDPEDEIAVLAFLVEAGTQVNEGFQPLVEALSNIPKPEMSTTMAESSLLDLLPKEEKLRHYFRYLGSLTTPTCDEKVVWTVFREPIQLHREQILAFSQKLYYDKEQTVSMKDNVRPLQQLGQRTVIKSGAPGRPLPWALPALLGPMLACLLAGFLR

Ki (hCA I) [nM]	Ki (hCA II) [nM]	SI CA I/II (hCA II)	Ki (hCA IV) [nM]	SI CA I/IV (hCA IV)	SI CA II/IV (hCA IV)	Ki (hCA IX) [nM]	SI CA I/IX (hCA IX)	SI CA II/IX (hCA IX)	Ki (hCA XII) [nM]	SI CA I/XII (hCA XII)	SI CA II/XII (hCA XII)	melting point [°C]	Compound
214	189	1.1	5240	0.04	0.04	86.4	2.5	2.2	83.6	2.6	2.3		NS(=O)(=O)c1ccc(CCNCc2ccc(Br)cc2)cc1 [Compound 7, 4-(2-((4-Bromobenzyl)amino)ethyl)benzenesulfonamide]
			961										CN(C)c1ccc(CNCCc2ccc(S(N)(=O)=O)cc2)cc1 [Compound 9, 4-(2-((4-(Dimethylamino)benzyl)amino)ethyl)benzenesulfonamide]
145			1860										COc1cc([N+](=O)[O-])ccc1CNCCc1ccc(S(N)(=O)=O)cc1 [Compound 11, 4-(2-((2-Methoxy-4-nitrobenzyl)amino)ethyl)benzenesulfonamide]
88.6	75.2	1.2	1100		0.07	103	0.9	0.7	51	0.9	1.5		COc1ccc(CNCCc2ccc(S(N)(=O)=O)cc2)cc1OC [Compound 13, 4-(2-((3,4-Dimethoxybenzyl)amino)ethyl)benzenesulfonamide]
122			2130			112			88.6				CSc1ccc(CNCCc2ccc(S(N)(=O)=O)cc2)cc1 [Compound 14, 4-(2-((4-(Methylthio)benzyl)amino)ethyl)benzenesulfonamide]
				<0.53	<0.06		115	13.0		81.5	9.2	158 to 159	NS(=O)(=O)c1ccc(CCN(Cc2ccc(F)cc2)C(=O)c2ccc(-c3cssc3=S)cc2)cc1 [Compound 20, N-(4-Fluorobenzyl)-N-(4-sulfamoylphenethyl)-4-(3-thioxo-3H-1,2-dithiol-4-yl)benzamide]
				7.4	3.5		403	192		597	284	65 to 66	NS(=O)(=O)c1ccc(CCN(Cc2ccc(Br)cc2)C(=O)c2ccc(-c3cssc3=S)cc2)cc1 [Compound 22, N-(4-Bromobenzyl)-N-(4-sulfamoylphenethyl)-4-(3-thioxo-3H-1,2-dithiol-4-yl)benzamide]
				>216.4	104		>248	120		>1136	548	251 to 252	N#Cc1ccc(CN(CCc2ccc(S(N)(=O)=O)cc2)C(=O)c2ccc(-c3cssc3=S)cc2)cc1 [Compound 23, N-(4-Cyanobenzyl)-N-(4-sulfamoylphenethyl)-4-(3-thioxo-3H-1,2-dithiol-4-yl)benzamide]
				1.2	0.3		188	43.9		448	105	185 to 186	CN(C)c1ccc(CN(CCc2ccc(S(N)(=O)=O)cc2)C(=O)c2ccc(-c3cssc3=S)cc2)cc1 [Compound 24, N-(4-(Dimethylamino)benzyl)-N-(4-sulfamoylphenethyl)-4-(3-thioxo-3H-1,2-dithiol-4-yl)benzamide]
771 to 890				3.0	0.7		47.9	11.7		105	25.7	183 to 184	COc1ccc(CN(CCc2ccc(S(N)(=O)=O)cc2)C(=O)c2ccc(-c3cssc3=S)cc2)cc1OC [Compound 28, N-(3,4-Dimethoxybenzyl)-N-(4-sulfamoylphenethyl)-4-(3-thioxo-3H-1,2-dithiol-4-yl)benzamide]
				18.0	2.7		34.9	5.3		462	69.6	228 to 229	NS(=O)(=O)c1ccc(CCN(CCc2ccccc2)C(=O)c2ccc(-c3cssc3=S)cc2)cc1 [Compound 32, N-Phenethyl-N-(4-sulfamoylphenethyl)-4-(3-thioxo-3H-1,2-dithiol-4-yl)benzamide]
				0.8	0.11		15.0	2.1		45.2	6.4		N#CCCN(CCc1ccc(S(N)(=O)=O)cc1)C(=O)c1ccc(-c2cssc2=S)cc1 [Compound 33, N-(2-Cyanoethyl)-N-(4-sulfamoylphenethyl)-4-(3-thioxo-3H-1,2-dithiol-4-yl)benzamide]

Further lines, the molecule ahead of its results:

Compound	Ki (hCA I) [nM]	Ki (hCA II) [nM]	SI CA I/II (hCA II)	Ki (hCA IV) [nM]	SI CA I/IV (hCA IV)	SI CA II/IV (hCA IV)	Ki (hCA IX) [nM]	SI CA I/IX (hCA IX)	SI CA II/IX (hCA IX)	Ki (hCA XII) [nM]	SI CA I/XII (hCA XII)	SI CA II/XII (hCA XII)	melting point [°C]
NS(=O)(=O)c1ccc(CCNCc2ccc(Cl)cc2)cc1 [Compound 6, 4-(2-((4-Chlorobenzyl)amino)ethyl)benzenesulfonamide]	136	115	1.2	3680	0.04	0.03	67.4	2.0	1.7	75.2	1.8	1.5	
N#Cc1ccc(CNCCc2ccc(S(N)(=O)=O)cc2)cc1 [Compound 8, 4-(2-((4-Cyanobenzyl)amino)ethyl)benzenesulfonamide]	91.4	70.2		1780						52.9			
COc1ccc(CNCCc2ccc(S(N)(=O)=O)cc2)cc1 [Compound 12, 4-(2-((4-Methoxybenzyl)amino)ethyl)benzenesulfonamide]	97.2			1450						57.2			
NS(=O)(=O)c1ccc(CCNCc2csc3ccccc23)cc1 [Compound 16, 4-(2-((Benzo[b]thiophen-3-ylmethyl)amino)ethyl)benzenesulfonamide]	374	202	1.9	7240	0.05	0.03	70.5	5.3	2.8	69.8	5.3	2.8	
NS(=O)(=O)c1ccc(CCN(Cc2ccccc2)C(=O)c2ccc(-c3cssc3=S)cc2)cc1 [Compound 19, N-Benzyl-N-(4-sulfamoylphenethyl)-4-(3-thioxo-3H-1,2-dithiol-4-yl)benzamide]	771 to 890				0.18	0.11		19.2	11.1		79.4	49.5	139 to 140
NS(=O)(=O)c1ccc(CCN(Cc2ccc(Cl)cc2)C(=O)c2ccc(-c3cssc3=S)cc2)cc1 [Compound 21, N-(4-Chlorobenzyl)-N-(4-sulfamoylphenethyl)-4-(3-thioxo-3H-1,2-dithiol-4-yl)benzamide]					12.8	6.9		229	124		561	303	104 to 105
NS(=O)(=O)c1ccc(CCN(Cc2ccc([N+](=O)[O-])cc2)C(=O)c2ccc(-c3cssc3=S)cc2)cc1 [Compound 25, N-(4-Nitrobenzyl)-N-(4-sulfamoylphenethyl)-4-(3-thioxo-3H-1,2-dithiol-4-yl)benzamide]					<0.7	<0.09		204	25.1		226	27.9	223 to 224
COc1ccc(CN(CCc2ccc(S(N)(=O)=O)cc2)C(=O)c2ccc(-c3cssc3=S)cc2)cc1 [Compound 27, N-(4-Methoxybenzyl)-N-(4-sulfamoylphenethyl)-4-(3-thioxo-3H-1,2-dithiol-4-yl)benzamide]					1.4	0.4		44.0	11.7		29.0	7.7	151 to 152
